Results: PubChem BioAssay (NCI)
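Five compound concentrations were applied to cells in 96-well plates for 48 hours; endpoints were derived by simple linear interpolation of the resulting dose-response curve. GI50: concentration for 50% inhibition of growth. The concentration for full growth arrest is given as TGI.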 Where a SMILES comes first, the peptide text is derived from it. [ ]: non-standard residue; d: D form. Ac5c = NC1(C(=O)O)CCCC1

Test system: NCI-H460 lung
Assay: DTP human tumour cell line panel, 48 h

`O=C1OC(CC(=O)c2ccc(Cl)c(Cl)c2)C(Cl)=C1Cl` (configuration not stated) and `O=[N+]([O-])c1cc(Cl)c(Cl)c([N+](=O)[O-])c1Cl` cannot be ordered by TGI: greater than 100 µM for the first, greater than 100 µM for the second.

`O=c1ccn(C2OC(CO)C(O)C2F)c(=O)[nH]1` (configuration not stated) and `CC(=O)OCC1OC(N2C(=O)C(=O)c3cc(C)ccc32)C(OC(C)=O)C(OC(C)=O)C1OC(C)=O` (configuration not stated) cannot be ordered by TGI: greater than 1000 µM for the first, greater than 100 µM for the second.

`CC(=O)[O-].CC(=O)[O-].[Pt+2].c1cscn1.c1cscn1` and `CC(=O)CC(=O)Nc1ccc2ccccc2c1` cannot be ordered by TGI: greater than 100 µM for the first, greater than 100 µM for the second.

Going from `CC[C@@H]1OC2(C)CC(S(=O)(=O)c3ccccc3O)CC1O2` (some centres not stated) to `O=C(/C=C/c1ccc([N+](=O)[O-])o1)N1CCN(Cc2ccccc2)CC1`, the TGI falls from greater than 100 µM to 29.8 µM.

Going from `CCN1CCN(C(=O)[C@]23CC[C@@H](C)[C@H](C)[C@@H]2C2=CC[C@@H]4[C@@]5(C)C/C(=C/c6ccncc6)C(=O)C(C)(C)[C@@H]5CC[C@@]4(C)[C@]2(C)CC3)CC1` to `Cc1cc(C)c([O-])c(CN(C)CCN(C)Cc2cc(C)cc(C)c2[O-])c1.O=C([O-])c1cccc(C(=O)[O-])n1.[Ti+4]`, the TGI rises from 3.25 µM to greater than 100 µM.

`NC1(C(=O)NC2(C(=O)O)CCCC2)CCCC1` (H-[Ac5c]-[Ac5c]-OH) and `CCCCOC(=O)NC(=O)c1cn(CCCOC(=O)CCCCCCCCC(=O)OCCCn2cc(C(=O)NC(=O)OCCCC)c(=O)[nH]c2=O)c(=O)[nH]c1=O` cannot be ordered by TGI: greater than 100 µM for the first, greater than 100 µM for the second.

`COc1cc(OC)c(/C=C/S(=O)(=O)Cc2cnc(OC)c(N)c2)c(OC)c1` and `COc1ccc([N+]2=NC(c3ccc([N+](=O)[O-])cc3)=NN(c3ccccc3)C2)cc1` cannot be ordered by TGI: greater than 100 µM for the first, greater than 100 µM for the second.

`CSc1nc(C)c2c(n1)SCC2` and `Nc1c(C(=O)c2ccc(Cl)cc2)sc(Nc2ccccc2)c1-c1nc2ccccc2s1` cannot be ordered by TGI: greater than 10 µM for the first, greater than 100 µM for the second.

Going from `O=c1ccn(C2OC(CO)C(O)C2F)c(=O)[nH]1` (configuration not stated) to `CCN1CCN(C(=O)[C@]23CC[C@@H](C)[C@H](C)[C@@H]2C2=CC[C@@H]4[C@@]5(C)C/C(=C/c6ccncc6)C(=O)C(C)(C)[C@@H]5CC[C@@]4(C)[C@]2(C)CC3)CC1`, the GI50 falls from greater than 1000 µM to 1.7 µM.

Compared with `CC(=O)[O-].CC(=O)[O-].[Pt+2].c1cscn1.c1cscn1`, `Cc1cc(C)c([O-])c(CN(C)CCN(C)Cc2cc(C)cc(C)c2[O-])c1.O=C([O-])c1cccc(C(=O)[O-])n1.[Ti+4]` is lower in GI50: greater than 100 µM for the first, 2.01 µM for the second.

First: O=[N+]([O-])c1cc(Cl)c(Cl)c([N+](=O)[O-])c1Cl
Second: COc1cc(OC)c(/C=C/S(=O)(=O)Cc2cnc(OC)c(N)c2)c(OC)c1
The GI50 of the first is higher: 3.3 µM for the first, less than 0.02 µM for the second.

Work on `Nc1c(C(=O)c2ccc(Cl)cc2)sc(Nc2ccccc2)c1-c1nc2ccccc2s1` yielded a GI50 of 0.776 µM.

Test system: COLO 205 colon
Assay: DTP human tumour cell line panel, 48 h

Compared with `COc1cc(/C=C/C(=O)CC(=O)/C=C/c2cc(OC)c(OC)c(OC)c2)cc(OC)c1OC`, `COc1cc(OC)c(/C=C/S(=O)(=O)Cc2cnc(OC)c(N)c2)c(OC)c1` is lower in GI50: 6.93 µM for the first, less than 0.0169 µM for the second.

Going from `COc1ccc(CN(C)c2ccc(CO)c(Cl)c2)cc1` to `C=CCC(N[C@H](CO)c1ccccc1)c1ccc2ccccc2n1` (some centres not stated), the GI50 rises from 3.55 µM to greater than 100 µM.

Compared with `O=C1Nc2ccc(C(=O)c3ccco3)cc2/C1=C/c1cc(Cl)c(O)c(Cl)c1`, `Cc1cc(C)c([O-])c(CN(C)CCN(C)Cc2cc(C)cc(C)c2[O-])c1.O=C([O-])c1cccc(C(=O)[O-])n1.[Ti+4]` is 3.3-fold lower in GI50: 8.01 µM for the first, 2.4 µM for the second.

First: O=c1ccn(C2OC(CO)C(O)C2F)c(=O)[nH]1 (configuration not stated)
Second: CCN1CCN(C(=O)[C@]23CC[C@@H](C)[C@H](C)[C@@H]2C2=CC[C@@H]4[C@@]5(C)C/C(=C/c6ccncc6)C(=O)C(C)(C)[C@@H]5CC[C@@]4(C)[C@]2(C)CC3)CC1
The GI50 of the first is higher: greater than 1000 µM for the first, 2.11 µM for the second.

Compared with `CC(=O)[O-].CC(=O)[O-].[Pt+2].c1cscn1.c1cscn1`, `O=[N+]([O-])c1cc(Cl)c(Cl)c([N+](=O)[O-])c1Cl` is lower in GI50: greater than 100 µM for the first, 1.55 µM for the second.

First: COc1cc(/C=C/C(=O)CC(=O)/C=C/c2cc(OC)c(OC)c(OC)c2)cc(OC)c1OC
Second: COc1cc(OC)c(/C=C/S(=O)(=O)Cc2cnc(OC)c(N)c2)c(OC)c1
The TGI of the first is higher: greater than 100 µM for the first, less than 0.0322 µM for the second.

Compared with `CO[C@@H]1/C=C\C=C(/C)C(=O)NC2=CC(=O)C(NCCN(C)C)=C(C[C@@H](C)C[C@@H](OC)[C@@H](O)[C@H](C)/C=C(\C)[C@H]1OC(N)=O)C2=O`, `CC(=O)OCC1OC(N2C(=O)C(=O)c3cc(C)ccc32)C(OC(C)=O)C(OC(C)=O)C1OC(C)=O` (configuration not stated) is higher in TGI: 0.171 µM for the first, greater than 100 µM for the second.

`c1ccc2c(c1)CCC/C2=N\OCC1CO1` (configuration not stated) and `CC[C@@H]1OC2(C)CC(S(=O)(=O)c3ccccc3O)CC1O2` (some centres not stated) cannot be ordered by TGI: greater than 100 µM for the first, greater than 100 µM for the second.

Going from `COc1ccc(CN(C)c2ccc(CO)c(Cl)c2)cc1` to `COc1ccc([N+]2=NC(c3ccc([N+](=O)[O-])cc3)=NN(c3ccccc3)C2)cc1`, the TGI rises from 17.5 µM to greater than 100 µM.

Compared with `COC(=O)C1C(C(=O)OC)C2(OC)c3ccccc3-c3ccccc3C12` (configuration not stated), `CC(=O)CC(=O)Nc1ccc2ccccc2c1` is higher in TGI: 31.3 µM for the first, greater than 100 µM for the second.

`O=C1Nc2ccc(C(=O)c3ccco3)cc2/C1=C/c1cc(Cl)c(O)c(Cl)c1` and `O=C1OC(CC(=O)c2ccc(Cl)c(Cl)c2)C(Cl)=C1Cl` (configuration not stated) cannot be ordered by TGI: greater than 25 µM for the first, greater than 100 µM for the second.

First: O=c1ccn(C2OC(CO)C(O)C2F)c(=O)[nH]1 (configuration not stated)
Second: CCN1CCN(C(=O)[C@]23CC[C@@H](C)[C@H](C)[C@@H]2C2=CC[C@@H]4[C@@]5(C)C/C(=C/c6ccncc6)C(=O)C(C)(C)[C@@H]5CC[C@@]4(C)[C@]2(C)CC3)CC1
The TGI of the first is higher: greater than 1000 µM for the first, 5.62 µM for the second.

First: CC(=O)[O-].CC(=O)[O-].[Pt+2].c1cscn1.c1cscn1
Second: Cc1cc(C)c([O-])c(CN(C)CCN(C)Cc2cc(C)cc(C)c2[O-])c1.O=C([O-])c1cccc(C(=O)[O-])n1.[Ti+4]
The TGI of the first is higher: greater than 100 µM for the first, 5.01 µM for the second.

First: O=[N+]([O-])c1cc(Cl)c(Cl)c([N+](=O)[O-])c1Cl
Second: CSc1nc(C)c2c(n1)SCC2
The TGI of the first is lower: 2.91 µM for the first, greater than 10 µM for the second.

`NC1(C(=O)NC2(C(=O)O)CCCC2)CCCC1` (H-[Ac5c]-[Ac5c]-OH) and `CCCCOC(=O)NC(=O)c1cn(CCCOC(=O)CCCCCCCCC(=O)OCCCn2cc(C(=O)NC(=O)OCCCC)c(=O)[nH]c2=O)c(=O)[nH]c1=O` cannot be ordered by TGI: greater than 100 µM for the first, greater than 100 µM for the second.

With `C=CCC(N[C@H](CO)c1ccccc1)c1ccc2ccccc2n1` (some centres not stated) the TGI was greater than 100 µM.

Test system: HCC-2998 colon
Assay: DTP human tumour cell line panel, 48 h

First: COc1cc(/C=C/C(=O)CC(=O)/C=C/c2cc(OC)c(OC)c(OC)c2)cc(OC)c1OC
Second: COc1cc(OC)c(/C=C/S(=O)(=O)Cc2cnc(OC)c(N)c2)c(OC)c1
The GI50 of the first is higher: 15.9 µM for the first, less than 0.0333 µM for the second.

First: CO[C@@H]1/C=C\C=C(/C)C(=O)NC2=CC(=O)C(NCCN(C)C)=C(C[C@@H](C)C[C@@H](OC)[C@@H](O)[C@H](C)/C=C(\C)[C@H]1OC(N)=O)C2=O
Second: Cc1cc(C)c([O-])c(CN(C)CCN(C)Cc2cc(C)cc(C)c2[O-])c1.O=C([O-])c1cccc(C(=O)[O-])n1.[Ti+4]
The GI50 of the first is 150-fold lower: 0.0197 µM for the first, 2.98 µM for the second.

Going from `COc1ccc(CN(C)c2ccc(CO)c(Cl)c2)cc1` to `C=CCC(N[C@H](CO)c1ccccc1)c1ccc2ccccc2n1` (some centres not stated), the GI50 rises from 13.7 µM to greater than 100 µM.

Going from `O=C1Nc2ccc(C(=O)c3ccco3)cc2/C1=C/c1cc(Cl)c(O)c(Cl)c1` to `Nc1c(C(=O)c2ccc(Cl)cc2)sc(Nc2ccccc2)c1-c1nc2ccccc2s1`, the GI50 rises from 6.07 µM to greater than 100 µM.

First: CC(=O)[O-].CC(=O)[O-].[Pt+2].c1cscn1.c1cscn1
Second: CCN1CCN(C(=O)[C@]23CC[C@@H](C)[C@H](C)[C@@H]2C2=CC[C@@H]4[C@@]5(C)C/C(=C/c6ccncc6)C(=O)C(C)(C)[C@@H]5CC[C@@]4(C)[C@]2(C)CC3)CC1
The GI50 of the first is higher: greater than 100 µM for the first, 1.5 µM for the second.

`COc1cc(/C=C/C(=O)CC(=O)/C=C/c2cc(OC)c(OC)c(OC)c2)cc(OC)c1OC` and `COc1cc(OC)c(/C=C/S(=O)(=O)Cc2cnc(OC)c(N)c2)c(OC)c1` cannot be ordered by TGI: greater than 100 µM for the first, greater than 100 µM for the second.

`c1ccc2c(c1)CCC/C2=N\OCC1CO1` (configuration not stated) and `CC[C@@H]1OC2(C)CC(S(=O)(=O)c3ccccc3O)CC1O2` (some centres not stated) cannot be ordered by TGI: greater than 100 µM for the first, greater than 100 µM for the second.

Going from `COc1ccc(CN(C)c2ccc(CO)c(Cl)c2)cc1` to `COc1ccc([N+]2=NC(c3ccc([N+](=O)[O-])cc3)=NN(c3ccccc3)C2)cc1`, the TGI rises from 71.2 µM to greater than 100 µM.

Compared with `CC/C(C)=C1\CCC(CN2CCOCC2)C1=O` (configuration not stated), `CCN1CCN(C(=O)[C@]23CC[C@@H](C)[C@H](C)[C@@H]2C2=CC[C@@H]4[C@@]5(C)C/C(=C/c6ccncc6)C(=O)C(C)(C)[C@@H]5CC[C@@]4(C)[C@]2(C)CC3)CC1` is 13-fold lower in TGI: 39.4 µM for the first, 3.03 µM for the second.

`COC(=O)C1C(C(=O)OC)C2(OC)c3ccccc3-c3ccccc3C12` (configuration not stated) and `C=CCC(N[C@H](CO)c1ccccc1)c1ccc2ccccc2n1` (some centres not stated) cannot be ordered by TGI: greater than 100 µM for the first, greater than 100 µM for the second.

Compared with `O=C1Nc2ccc(C(=O)c3ccco3)cc2/C1=C/c1cc(Cl)c(O)c(Cl)c1`, `O=C1OC(CC(=O)c2ccc(Cl)c(Cl)c2)C(Cl)=C1Cl` (configuration not stated) is higher in TGI: 17.7 µM for the first, greater than 100 µM for the second.

Compared with `O=c1ccn(C2OC(CO)C(O)C2F)c(=O)[nH]1` (configuration not stated), `O=C(/C=C/c1ccc([N+](=O)[O-])o1)N1CCN(Cc2ccccc2)CC1` is lower in TGI: greater than 100 µM for the first, 29.3 µM for the second.

`CC(=O)[O-].CC(=O)[O-].[Pt+2].c1cscn1.c1cscn1` and `Cc1cc(C)c([O-])c(CN(C)CCN(C)Cc2cc(C)cc(C)c2[O-])c1.O=C([O-])c1cccc(C(=O)[O-])n1.[Ti+4]` cannot be ordered by TGI: greater than 100 µM for the first, greater than 100 µM for the second.

`CCCCOC(=O)NC(=O)c1cn(CCCOC(=O)CCCCCCCCC(=O)OCCCn2cc(C(=O)NC(=O)OCCCC)c(=O)[nH]c2=O)c(=O)[nH]c1=O` and `Nc1c(C(=O)c2ccc(Cl)cc2)sc(Nc2ccccc2)c1-c1nc2ccccc2s1` cannot be ordered by TGI: greater than 100 µM for the first, greater than 100 µM for the second.
